{"source": "ChEMBL document CHEMBL3217480", "about": "“Cytotoxic sugar analogues of an optimized novobiocin scaffold” (Medchemcomm, 2010)", "key": {"MCF7 [1]": {"system": "MCF7", "assay": "Antiproliferative activity against estrogen receptor positive human MCF7 cells after 72 hrs by MTS assay", "assay_type": "functional, cell-based", "settings": "MCF7, 72 h"}, "[2]": {"assay": "Antiproliferative activity against estrogen receptor-negative, Her2 overexpressing human SKBR3 cells after 72 hrs by MTS assay", "assay_type": "functional, cell-based", "settings": "SK-BR-3, 72 h"}, "[3]": {"assay": "Inhibition of human SKBR3 cell proliferation", "assay_type": "functional, cell-based", "settings": "SK-BR-3"}, "[4]": {"target": "Heat shock protein HSP 90-beta (Homo sapiens) (UniProt P08238)", "sequence (P08238 whole entry)": "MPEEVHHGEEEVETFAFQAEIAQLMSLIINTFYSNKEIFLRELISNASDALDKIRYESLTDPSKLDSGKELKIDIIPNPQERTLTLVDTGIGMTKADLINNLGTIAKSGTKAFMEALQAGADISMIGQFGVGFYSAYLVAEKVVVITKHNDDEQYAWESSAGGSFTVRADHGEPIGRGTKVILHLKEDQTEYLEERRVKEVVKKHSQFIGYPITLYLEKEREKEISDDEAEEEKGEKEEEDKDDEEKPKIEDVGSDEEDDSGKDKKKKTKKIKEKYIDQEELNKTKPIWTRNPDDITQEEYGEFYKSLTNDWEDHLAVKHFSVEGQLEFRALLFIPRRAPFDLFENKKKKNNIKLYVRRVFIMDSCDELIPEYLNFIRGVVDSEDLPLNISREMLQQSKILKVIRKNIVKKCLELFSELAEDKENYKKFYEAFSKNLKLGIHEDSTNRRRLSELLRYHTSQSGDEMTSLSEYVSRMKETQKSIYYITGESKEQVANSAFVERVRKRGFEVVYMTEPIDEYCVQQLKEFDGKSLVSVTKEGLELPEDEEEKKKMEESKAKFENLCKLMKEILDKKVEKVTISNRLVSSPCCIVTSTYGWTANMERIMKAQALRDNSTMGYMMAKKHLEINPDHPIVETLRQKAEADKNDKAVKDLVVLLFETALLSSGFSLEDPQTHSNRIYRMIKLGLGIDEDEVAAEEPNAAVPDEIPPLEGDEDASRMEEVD", "assay": "Inhibition of HSP90-dependent client protein Her-2 degradation in human MCF7 cells after 24 hrs by Western blot analysis", "assay_type": "cell-based"}, "MCF7 [5]": {"system": "MCF7", "assay": "Effect on actin expression in human MCF7 cells at 0.5 to 25 uM after 24 hrs by Western blot analysis", "assay_type": "ADME, cell-based", "settings": "mcf7, 24 h"}, "[6]": {"target": "Heat shock protein HSP 90-beta (Homo sapiens) (UniProt P08238)", "assay": "Inhibition of HSP90-dependent client protein Raf degradation in human MCF7 cells after 24 hrs by Western blot analysis", "assay_type": "cell-based"}, "[7]": {"target": "Heat shock protein HSP 90-beta (Homo sapiens) (UniProt P08238)", "assay": "Inhibition of HSP90-dependent client protein Akt degradation in human MCF7 cells after 24 hrs by Western blot analysis", "assay_type": "cell-based"}, "MCF7 [8]": {"system": "MCF7", "assay": "Effect on Hsp90 protein expression in human MCF7 cells at 0.5 to 25 uM after 24 hrs by Western blot analysis", "assay_type": "functional, cell-based"}, "[9]": {"assay": "Inhibition of human Jurkat T cell cell proliferation", "assay_type": "functional, cell-based"}, "PC-3": {"system": "PC-3", "assay": "Inhibition of human PC3 cell proliferation", "assay_type": "functional, cell-based"}, "[10]": {"assay": "Inhibition of human PL45 cell proliferation", "assay_type": "functional, cell-based"}, "HCT-116": {"system": "HCT-116", "assay": "Inhibition of human HCT116 cell proliferation", "assay_type": "functional, cell-based"}, "LNCaP": {"system": "LNCaP", "assay": "Inhibition of human LNCAP cell proliferation", "assay_type": "functional, cell-based"}}, "note": "Calls of active or inactive are those of the source. No cut-off for these calls is given here.", "data": [{"smiles": "COc1cccc(-c2cc(C(=O)Nc3cc4cc(OC)c(O[C@@H]5OC(C)(C)[C@H](OC)[C@@H](O)[C@H]5O)c(C)c4oc3=O)ccc2OC)c1", "values": [{"measurement": "IC50", "setting": "MCF7 [1]", "result": "> 100", "unit": "µM"}, {"measurement": "IC50", "setting": "[2]", "result": 58.8, "unit": "µM"}, {"measurement": "IC50", "setting": "[3]", "result": 58.8, "unit": "µM"}]}, {"smiles": "COc1cccc(-c2cc(C(=O)Nc3cc4ccc(O[C@H]5C[C@H](O)CCO5)c(C)c4oc3=O)ccc2OC)c1", "values": [{"measurement": "IC50", "setting": "MCF7 [1]", "result": 11.2, "unit": "µM"}, {"measurement": "IC50", "setting": "[2]", "result": 9.28, "unit": "µM"}]}, {"smiles": "CNC(=O)Oc1ccc2cc(NC(=O)c3ccc(OC)c(-c4cccc(OC)c4)c3)c(=O)oc2c1C", "values": [{"measurement": "inhibition", "setting": "[4]", "result": "Dose-dependent effect"}, {"measurement": "Activity", "setting": "MCF7 [5]", "result": "Non-toxic"}, {"measurement": "inhibition", "setting": "[6]", "result": "Dose-dependent effect"}, {"measurement": "inhibition", "setting": "[7]", "result": "Dose-dependent effect"}, {"measurement": "Activity", "setting": "MCF7 [8]", "result": "inactive"}]}, {"smiles": "COc1cccc(-c2cc(C(=O)Nc3cc4ccc(OC5CCN(C)CC5)c(C)c4oc3=O)ccc2OC)c1", "values": [{"measurement": "inhibition", "setting": "[4]", "result": "Dose-dependent effect"}, {"measurement": "Activity", "setting": "MCF7 [5]", "result": "Non-toxic"}, {"measurement": "inhibition", "setting": "[6]", "result": "Dose-dependent effect"}, {"measurement": "inhibition", "setting": "[7]", "result": "Dose-dependent effect"}, {"measurement": "Activity", "setting": "MCF7 [8]", "result": "inactive"}]}, {"smiles": "COc1cccc(-c2cc(C(=O)Nc3cc4cc(OC)c(OC(C)=O)c(C)c4oc3=O)ccc2OC)c1", "values": [{"measurement": "IC50", "setting": "[9]", "result": 0.42, "unit": "µM"}, {"measurement": "IC50", "setting": "MCF7 [1]", "result": 1.5, "unit": "µM"}, {"measurement": "IC50", "setting": "PC-3", "result": 0.97, "unit": "µM"}, {"measurement": "IC50", "setting": "[10]", "result": 4.1, "unit": "µM"}, {"measurement": "IC50", "setting": "HCT-116", "result": 0.52, "unit": "µM"}, {"measurement": "IC50", "setting": "[3]", "result": 5.72, "unit": "µM"}, {"measurement": "IC50", "setting": "LNCaP", "result": 0.42, "unit": "µM"}]}, {"smiles": "COc1cccc(-c2cc(C(=O)Nc3cc4ccc(O[C@@H]5CCC[C@@H](O)[C@H]5O)c(C)c4oc3=O)ccc2OC)c1", "values": [{"measurement": "IC50", "setting": "MCF7 [1]", "result": "> 100", "unit": "µM"}, {"measurement": "IC50", "setting": "[2]", "result": "> 100", "unit": "µM"}]}, {"smiles": "COc1cccc(-c2cc(C(=O)Nc3cc4ccc(O[C@@H]5OC(C)(C)[C@H](OC)[C@@H](O)[C@H]5O)c(C)c4oc3=O)ccc2OC)c1", "values": [{"measurement": "IC50", "setting": "MCF7 [1]", "result": 18.7, "unit": "µM"}, {"measurement": "IC50", "setting": "[2]", "result": 7.5, "unit": "µM"}, {"measurement": "IC50", "setting": "[3]", "result": 7.5, "unit": "µM"}]}, {"smiles": "COc1cccc(-c2cc(C(=O)Nc3cc4ccc(OC5CCCN(C(C)=O)C5)c(C)c4oc3=O)ccc2OC)c1", "note": "(centres undefined)", "values": [{"measurement": "IC50", "setting": "MCF7 [1]", "result": 9.18, "unit": "µM"}, {"measurement": "IC50", "setting": "[2]", "result": 10.8, "unit": "µM"}]}]}
